# How the values were obtained:
# HepG2 = assay: Cytotoxicity against human HepG2 cells assessed as reduction in cell viability incubated for 48 hrs by MTT assay; type: functional, cell-based; details: HepG2, 48 h
# ECa-109 cell line [1] = assay: Cytotoxicity against human ECa-109 cells assessed as reduction in cell viability incubated for 48 hrs by MTT assay; type: functional, cell-based; details: ECa-109, 48 h
# SGC-7901 [2] = assay: Cytotoxicity against human SGC-7901 cells assessed as reduction in cell viability incubated for 48 hrs by MTT assay; type: functional, cell-based; details: SGC-7901, 48 h
# HeLa = assay: Cytotoxicity against human HeLa cells assessed as reduction in cell viability incubated for 48 hrs by MTT assay; type: functional, cell-based
# L02 = assay: Cytotoxicity against human HL7702 cells assessed as reduction in cell viability incubated for 48 hrs by MTT assay; type: ADME, cell-based; details: L02, 48 h
# SGC-7901 [3] = assay: Induction of apoptosis in human SGC-7901 cells assessed as early apoptotic cells at 1 uM incubated for 48 hrs by annexin-V-FITC and PI staining based fluorescence microscopic analysis (reference value: 1.87 %); type: functional
# SGC-7901 [4] = assay: Induction of apoptosis in human SGC-7901 cells assessed as necrotic cells at 1 uM incubated for 48 hrs by annexin-V-FITC and PI staining based fluorescence microscopic analysis (reference value: 1.03 %); type: functional
# SGC-7901 [5] = assay: Induction of apoptosis in human SGC-7901 cells assessed as early apoptotic cells at 2 uM incubated for 48 hrs by annexin-V-FITC and PI staining based fluorescence microscopic analysis (reference value: 1.87 %); type: functional
# SGC-7901 [6] = assay: Induction of apoptosis in human SGC-7901 cells assessed as late apoptotic cells incubated for 48 hrs by annexin-V-FITC and PI staining based fluorescence microscopic analysis; type: functional, cell-based; details: dose 1-4 µM
# SGC-7901 [7] = assay: Induction of ROS-mediated apoptosis in human SGC-7901 cells assessed as late apoptotic cells at 1 uM incubated for 48 hrs by annexin V-PE and 7-AAD staining based flow cytometry analysis (reference value: 3.82 %); type: functional
# SGC-7901 [8] = assay: Induction of ROS-mediated apoptosis in human SGC-7901 cells assessed as early apoptotic cells at 2 uM incubated for 48 hrs by annexin V-PE and 7-AAD staining based flow cytometry analysis (reference value: 1.89 %); type: functional
# SGC-7901 [9] = assay: Induction of ROS-mediated apoptosis in human SGC-7901 cells assessed as viable cells at 2 uM incubated for 48 hrs in presence of NAC by annexin V-PE and 7-AAD staining based flow cytometry analysis (reference value: 94.8 %); type: functional; details: read-out: Activity
# SGC-7901 [10] = assay: Induction of ROS-mediated apoptosis in human SGC-7901 cells assessed as viable cells at 4 uM incubated for 48 hrs in presence of NAC by annexin V-PE and 7-AAD staining based flow cytometry analysis (reference value: 94.8 %); type: functional; details: read-out: Activity
# SGC-7901 [11] = assay: Induction of ROS-mediated apoptosis in human SGC-7901 cells assessed as early apoptotic cells at 4 uM incubated for 48 hrs in presence of NAC by annexin V-PE and 7-AAD staining based flow cytometry analysis (reference value: 1.15 %); type: functional
# SGC-7901 [12] = assay: Induction of cell cycle arrest in human SGC-7901 cells assessed as accumulation in G0/G1 phase at 1 uM incubated for 48 hrs by PI staining based flow cytometry analysis (reference value: 57.39 %); type: functional
# SGC-7901 [13] = assay: Induction of cell cycle arrest in human SGC-7901 cells assessed as accumulation in G2/M phase at 1 uM incubated for 48 hrs by PI staining based flow cytometry analysis (reference value: 11.48 %); type: functional
# SGC-7901 [14] = assay: Induction of apoptosis in human SGC-7901 cells assessed as downregulation of Bcl-2 incubated for 48 hrs by Western blot analysis; type: functional, cell-based; details: dose 1-4 µM
# SGC-7901 [15] = assay: Induction of apoptosis in human SGC-7901 cells assessed as downregulation of Bcl-xl incubated for 48 hrs by Western blot analysis; type: functional, cell-based; details: dose 1-4 µM
# SGC-7901 [16] = assay: Induction of apoptosis in human SGC-7901 cells assessed as upregulation of Bax incubated for 48 hrs by Western blot analysis; type: functional, cell-based; details: dose 1-4 µM
# ECa-109 cell line [17] = assay: Induction of apoptosis in human ECa-109 cells assessed as necrotic cells at 2 uM incubated for 48 hrs by annexin-V-FITC and PI staining based fluorescence microscopic analysis (reference value: 1.19 %); type: functional
# ECa-109 cell line [18] = assay: Induction of ROS-mediated apoptosis in human ECa-109 cells assessed as early apoptotic cells at 1 uM incubated for 48 hrs by annexin V-PE and 7-AAD staining based flow cytometry analysis (reference value: 2.70 %); type: functional
# ECa-109 cell line [19] = assay: Induction of ROS-mediated apoptosis in human ECa-109 cells assessed as necrotic cells at 1 uM incubated for 48 hrs by annexin V-PE and 7-AAD staining based flow cytometry analysis (reference value: 0.729 %); type: functional
# ECa-109 cell line [20] = assay: Induction of ROS-mediated apoptosis in human ECa-109 cells assessed as early apoptotic cells at 2 uM incubated for 48 hrs by annexin V-PE and 7-AAD staining based flow cytometry analysis (reference value: 2.70 %); type: functional
# ECa-109 cell line [21] = assay: Induction of ROS-mediated apoptosis in human ECa-109 cells assessed as viable cells at 4 uM incubated for 48 hrs by annexin V-PE and 7-AAD staining based flow cytometry analysis (reference value: 92.7 %); type: functional; details: read-out: Activity
# ECa-109 cell line [22] = assay: Induction of ROS-mediated apoptosis in human ECa-109 cells assessed as early apoptotic cells at 1 uM incubated for 48 hrs in presence of NAC by annexin V-PE and 7-AAD staining based flow cytometry analysis (reference value: 1.90 %); type: functional
# ECa-109 cell line [23] = assay: Induction of ROS-mediated apoptosis in human ECa-109 cells assessed as early apoptotic cells at 2 uM incubated for 48 hrs in presence of NAC by annexin V-PE and 7-AAD staining based flow cytometry analysis (reference value: 1.90 %); type: functional
# ECa-109 cell line [24] = assay: Induction of ROS-mediated apoptosis in human ECa-109 cells assessed as late apoptotic cells at 2 uM incubated for 48 hrs in presence of NAC by annexin V-PE and 7-AAD staining based flow cytometry analysis (reference value: 2.98 %); type: functional
# ECa-109 cell line [25] = assay: Induction of ROS-mediated apoptosis in human ECa-109 cells assessed as necrotic cells at 2 uM incubated for 48 hrs in presence of NAC by annexin V-PE and 7-AAD staining based flow cytometry analysis (reference value: 1.09 %); type: functional
# ECa-109 cell line [26] = assay: Induction of ROS-mediated apoptosis in human ECa-109 cells assessed as late apoptotic cells at 4 uM incubated for 48 hrs in presence of NAC by annexin V-PE and 7-AAD staining based flow cytometry analysis (reference value: 2.98 %); type: functional
# ECa-109 cell line [27] = assay: Induction of cell cycle arrest in human ECa-109 cells assessed as accumulation in G0/G1 phase at 1 uM incubated for 48 hrs by PI staining based flow cytometry analysis (reference value: 52.28 %); type: functional
# ECa-109 cell line [28] = assay: Induction of cell cycle arrest in human ECa-109 cells assessed as accumulation in G2/M phase at 2 uM incubated for 48 hrs by PI staining based flow cytometry analysis (reference value: 8.39 %); type: functional
# ECa-109 cell line [29] = assay: Induction of apoptosis in human ECa-109 cells assessed as downregulation of Bcl-2 incubated for 48 hrs by Western blot analysis; type: functional, cell-based; details: dose 1-4 µM
structure (smiles),measurement,setting,value
C[n+]1nn(Cc2c(F)cccc2Cl)c2c1C[C@]1(C)[C@H]3CC[C@@H]4[C@H]5[C@H]6OC[C@@]5(CCC6(C)C)CC[C@@]4(C)[C@]3(C)CC[C@H]1C2(C)C.[I-],IC50,HepG2,2620 nM
same,IC50,ECa-109 cell line [1],2630 nM
same,IC50,SGC-7901 [2],1120 nM
same,IC50,HeLa,2160 nM
same,IC50,L02,2330 nM
same,Activity,SGC-7901 [3],10.7%
same,Activity,SGC-7901 [4],1.56%
same,Activity,SGC-7901 [5],25.4%
same,Activity,SGC-7901 [6],Dose-dependent effect
same,Activity,SGC-7901 [7],4.97%
same,Activity,SGC-7901 [8],26.5%
same,viability at 2 µM,SGC-7901 [9],71.3%
same,viability at 4 µM,SGC-7901 [10],15.3%
same,Activity,SGC-7901 [11],4.28%
same,Activity,SGC-7901 [12],80.42%
same,Activity,SGC-7901 [13],5.39%
same,Activity,SGC-7901 [14],Dose-dependent effect
same,Activity,SGC-7901 [15],Dose-dependent effect
same,Activity,SGC-7901 [16],Dose-dependent effect
COc1ccccc1Cn1n[n+](C)c2c1C(C)(C)[C@@H]1CC[C@]3(C)[C@H](CC[C@@H]4[C@H]5[C@H]6OC[C@@]5(CCC6(C)C)CC[C@]43C)[C@@]1(C)C2.[I-],IC50,HepG2,1520 nM
same,IC50,ECa-109 cell line [1],1040 nM
same,IC50,SGC-7901 [2],1920 nM
same,IC50,HeLa,1490 nM
same,IC50,L02,1590 nM
same,Activity,ECa-109 cell line [17],1.32%
same,Activity,ECa-109 cell line [18],11.6%
same,Activity,ECa-109 cell line [19],2.92%
same,Activity,ECa-109 cell line [20],11.5%
same,viability at 4 µM,ECa-109 cell line [21],0.811%
same,Activity,ECa-109 cell line [22],8.01%
same,Activity,ECa-109 cell line [23],10.1%
same,Activity,ECa-109 cell line [24],18.2%
same,Activity,ECa-109 cell line [25],5.48%
same,Activity,ECa-109 cell line [26],78.9%
same,Activity,ECa-109 cell line [27],54.16%
same,Activity,ECa-109 cell line [28],16.84%
same,Activity,ECa-109 cell line [29],Dose-dependent effect

# — ChEMBL document CHEMBL4706545, “Antiproliferative effect of mitochondria-targeting allobetulin 1,2,3-triazolium salt derivatives and their mechanism of inducing apoptosis of cancer cells” (Eur J Med Chem, 2020)
